Measurements taken from article PMC9395446, “First-in-human phase 1/1b study to evaluate sitravatinib in patients with advanced solid tumors” (Investigational New Drugs, 2022).

Assay: Safety in phase 1/1b study (DLTs, TRAEs, TEAEs; CTCAE v4.03)
Type: in vivo, human
Text: Safety assessments included evaluation of DLTs, AEs, physical examinations, vital sign measurements, electrocardiogram recordings and laboratory tests.
A DLT was defined as a grade ≥ 4 hematologic abnormality lasting ≥ 4 days; grade 3 thrombocytopenia with clinically significant bleeding; febrile neutropenia; clinically significant grade ≥ 3 non-hematologic AEs not related to underlying malignancy; intolerable grade 2 AEs; or toxicity resulting in an inability to deliver 80% of the dose during the first treatment cycle.
The safety population included all patients who received ≥ 1 dose of sitravatinib. […] The PK evaluable population included all patients with sufficient concentration-time data for PK parameter evaluation. The modified intent-to-treat (mITT) population included all phase 1b patients who received ≥ 1 dose of study drug.

COCCNCc1ccc(-c2cc3nccc(Oc4ccc(NC(=O)C5(C(=O)Nc6ccc(F)cc6)CC5)cc4F)c3s2)nc1 [sitravatinib, Sitravatinib]
Hypophosphatemia TEAE, grade ≥3 (150 mg phase 1b): 9 (9.1) n (%)
Hypothyroidism TEAE, any grade (150 mg phase 1b): 22 (22.2) n (%)
Hypothyroidism TEAE, grade ≥3 (150 mg phase 1b): 0 n (%)
Hypothyroidism TRAE, any grade (150 mg phase 1b): 16 (16.2) n (%)
Hypothyroidism TRAE, grade ≥3 (150 mg phase 1b): 0 n (%)
Infections and infestations TEAE, any grade (150 mg phase 1b): 40 (40.4) n (%)
Infections and infestations TEAE, grade ≥3 (150 mg phase 1b): 12 (12.1) n (%)
Injury, poisoning, procedural complications TEAE, any grade (150 mg phase 1b): 20 (20.2) n (%)
Injury, poisoning, procedural complications TEAE, grade ≥3 (150 mg phase 1b): 2 (2.0) n (%)
Investigations TEAE, any grade (150 mg phase 1b): 66 (66.7) n (%)
Investigations TEAE, grade ≥3 (150 mg phase 1b): 23 (23.2) n (%)
Lipase increased TEAE, any grade (150 mg phase 1b): 15 (15.2) n (%)
Lipase increased TEAE, grade ≥3 (150 mg phase 1b): 10 (10.1) n (%)
Metabolism and nutrition disorders TEAE, any grade (150 mg phase 1b): 71 (71.7) n (%)
Metabolism and nutrition disorders TEAE, grade ≥3 (150 mg phase 1b): 26 (26.3) n (%)
Musculoskeletal and connective tissue disorders TEAE, any grade (150 mg phase 1b): 56 (56.6) n (%)
Musculoskeletal and connective tissue disorders TEAE, grade ≥3 (150 mg phase 1b): 8 (8.1) n (%)
Nausea TEAE, any grade (150 mg phase 1b): 49 (49.5) n (%)
Nausea TEAE, grade ≥3 (150 mg phase 1b): 7 (7.1) n (%)
Nausea TRAE, any grade (150 mg phase 1b): 38 (38.4) n (%)
Nausea TRAE, grade ≥3 (150 mg phase 1b): 5 (5.1) n (%)
Neoplasms benign, malignant, unspecified TEAE, any grade (150 mg phase 1b): 10 (10.1) n (%)
Neoplasms benign, malignant, unspecified TEAE, grade ≥3 (150 mg phase 1b): 8 (8.1) n (%)
Nervous system disorders TEAE, any grade (150 mg phase 1b): 50 (50.5) n (%)
Nervous system disorders TEAE, grade ≥3 (150 mg phase 1b): 5 (5.1) n (%)
PPE syndrome TEAE, any grade (150 mg phase 1b): 23 (23.2) n (%)
PPE syndrome TEAE, grade ≥3 (150 mg phase 1b): 4 (4.0) n (%)
PPE syndrome TRAE, any grade (150 mg phase 1b): 22 (22.2) n (%)
PPE syndrome TRAE, grade ≥3 (150 mg phase 1b): 4 (4.0) n (%)
Pain in extremity TEAE, any grade (150 mg phase 1b): 15 (15.2) n (%)
Pain in extremity TEAE, grade ≥3 (150 mg phase 1b): 2 (2.0) n (%)
Proteinuria TEAE, any grade (150 mg phase 1b): 11 (11.1) n (%)
Proteinuria TEAE, grade ≥3 (150 mg phase 1b): 0 n (%)
Proteinuria TRAE, any grade (150 mg phase 1b): 9 (9.1) n (%)
Proteinuria TRAE, grade ≥3 (150 mg phase 1b): 0 n (%)
Psychiatric disorders TEAE, any grade (150 mg phase 1b): 25 (25.3) n (%)
Psychiatric disorders TEAE, grade ≥3 (150 mg phase 1b): 1 (1.0) n (%)
Rash TEAE, any grade (150 mg phase 1b): 12 (12.1) n (%)
Rash TEAE, grade ≥3 (150 mg phase 1b): 0 n (%)
Rash TRAE, any grade (150 mg phase 1b): 11 (11.1) n (%)
Rash TRAE, grade ≥3 (150 mg phase 1b): 0 n (%)
Renal and urinary disorders TEAE, any grade (150 mg phase 1b): 23 (23.2) n (%)
Renal and urinary disorders TEAE, grade ≥3 (150 mg phase 1b): 1 (1.0) n (%)
Respiratory, thoracic and mediastinal disorders TEAE, any grade (150 mg phase 1b): 65 (65.7) n (%)
Respiratory, thoracic and mediastinal disorders TEAE, grade ≥3 (150 mg phase 1b): 14 (14.1) n (%)
Serious TEAE (150 mg phase 1b): 49 (49.5) n (%)
Serious TRAE (150 mg phase 1b): 22 (22.2) n (%)
Skin and subcutaneous tissue disorders TEAE, any grade (150 mg phase 1b): 55 (55.6) n (%)
Skin and subcutaneous tissue disorders TEAE, grade ≥3 (150 mg phase 1b): 6 (6.1) n (%)
Stomatitis TEAE, any grade (150 mg phase 1b): 14 (14.1) n (%)
Stomatitis TEAE, grade ≥3 (150 mg phase 1b): 1 (1.0) n (%)
Stomatitis TRAE, any grade (150 mg phase 1b): 14 (14.1) n (%)
Stomatitis TRAE, grade ≥3 (150 mg phase 1b): 1 (1.0) n (%)
TEAE grade ≥3 (150 mg phase 1b): 80 (80.8) n (%)
TEAE leading to death (150 mg phase 1b): 10 (10.1) n (%)
TEAE leading to discontinuation (150 mg phase 1b): 24 (24.2) n (%)
TEAE leading to treatment modification (150 mg phase 1b): 74 (74.7) n (%)
TRAE grade ≥3 (150 mg phase 1b): 61 (61.6) n (%)
TRAE leading to death (150 mg phase 1b): 1 (1.0) n (%)
TRAE leading to discontinuation (150 mg phase 1b): 17 (17.2) n (%)
TRAE leading to treatment modification (150 mg phase 1b): 66 (66.7) n (%)
UTI TEAE, any grade (150 mg phase 1b): 14 (14.1) n (%)
UTI TEAE, grade ≥3 (150 mg phase 1b): 3 (3.0) n (%)
Vascular disorders TEAE, any grade (150 mg phase 1b): 61 (61.6) n (%)
Vascular disorders TEAE, grade ≥3 (150 mg phase 1b): 32 (32.3) n (%)
Vomiting TEAE, any grade (150 mg phase 1b): 38 (38.4) n (%)
Vomiting TEAE, grade ≥3 (150 mg phase 1b): 10 (10.1) n (%)
Vomiting TRAE, any grade (150 mg phase 1b): 31 (31.3) n (%)
Vomiting TRAE, grade ≥3 (150 mg phase 1b): 5 (5.1) n (%)
Weight decreased TEAE, any grade (150 mg phase 1b): 28 (28.3) n (%)
Weight decreased TEAE, grade ≥3 (150 mg phase 1b): 3 (3.0) n (%)
Weight decreased TRAE, any grade (150 mg phase 1b): 18 (18.2) n (%)
Weight decreased TRAE, grade ≥3 (150 mg phase 1b): 2 (2.0) n (%)
ALT increased TEAE, any grade (Overall): 46 (23.8) n (%)
ALT increased TEAE, grade ≥3 (Overall): 5 (2.6) n (%)
ALT increased TRAE, any grade (Overall): 35 (18.1) n (%)
ALT increased TRAE, grade ≥3 (Overall): 3 (1.6) n (%)
AST increased TEAE, any grade (Overall): 47 (24.4) n (%)
AST increased TEAE, grade ≥3 (Overall): 4 (2.1) n (%)
